Results published in the Bradley open melting point set (2014).

Row | Structure (SMILES) | melting point
1 | O=C2c1ccccc1S(=O)(=O)N(C)C/2=C(O)Nc3ccccn3 [Piroxicam] | 199 °C
2 | CC[C@H](C)C(=O)O[C@H]1C[C@H](O)C=C2C=C[C@H](C)[C@H](CC[C@@H](O)C[C@@H](O)CC(=O)O)[C@H]21 [Pravastatin] | 326 °C
3 | O=C(C1CCCCC1)N1CC(=O)N2CCc3ccccc3C2C1 (stereo not drawn) [Praziquantel] | 136 °C
4 | C[C@]12C=CC(=O)C=C1CC[C@@H]1[C@@H]2C(=O)C[C@@]2(C)[C@H]1CC[C@]2(O)C(=O)CO [Prednisone] | 234 °C
5 | CCC1(c2ccccc2)C(=O)NCNC1=O [Primidone] | 282 °C
6 | Clc1ccc(NC(/N)=NC(N)=NC(C)C)cc1 [Proguanil] | 129 °C
7 | C=CCO [Prop-2-en-1-ol] | -129 °C
8 | CC(=O)OCC(COC(C)=O)OC(C)=O [Propane-1,2,3-triyl triacetate] | 3 °C
9 | CCC(=O)OC(=O)CC [Propanoic anhydride] | -45 °C
10 | N#Cc1ccc2c(c1)N(CCCN1CCC(O)CC1)c1ccccc1S2 [Propericiazine (JAN)] | 82 °C
11 | CCC#N [Propiononitrile] | -92 °C
12 | CC(C)NCC(O)COc1cccc2ccccc12 (stereo not drawn) [Propranolol] | 164 °C
13 | CCCc1ccccc1 [Propylbenzene] | -99 °C
14 | CC(O)CO (stereo not drawn) [Propylene glycol] | -60 °C
15 | Cc1ncc(CO)c(C=O)c1O [Pyridoxal] | 172 °C
16 | Cc1ncc(CO)c(CO)c1O [Pyridoxine] | 160 °C
17 | CCc1nc(N)nc(N)c1-c1ccc(Cl)cc1 [Pyrimethamine] | 234 °C
18 | CC(=O)C(=O)O [Pyruvic acid] | 11.8 °C
19 | C[C@@H](O)[C@@H](C)O [R,R-2,3-butanediol] | 16 °C
20 | C[C@@H]1O[C@H](OC[C@@H]2O[C@H](Oc3c(-c4ccc(O)c(O)c4)oc4cc(O)cc(O)c4c3=O)[C@@H](O)[C@H](O)[C@H]2O)[C@@H](O)[C@H](O)[C@H]1O [Rutin] | 125 °C
21 | CCCC(=O)OCSc1ncnc2c1ncn2COC(=O)CCC [S6,9-Bis(butanoyloxymethyl)-6-mercaptopurine] | 69 °C
22 | CC(C)(C)NCC(O)c1ccc(O)c(CO)c1 (stereo not drawn) [Salbutamol] | 158 °C
23 | NC(=O)c1ccccc1O [Salicylamide] | 142 °C
24 | C=CCC1([C@H](C)CCC)C(=O)NC(=O)NC1=O [Secobarbital] | 100 °C
25 | CCCC(C)(COC(N)=O)COC(N)=O [Sowell] | 104 °C
26 | C=Cc1ccccc1 [Styrene] | -31 °C

Row | Structure (SMILES) | melting point
27 | CC(=O)NS(=O)(=O)c1ccc(N)cc1 [Sulfacetamide] | 182 °C
28 | Cc1ccnc(NS(=O)(=O)c2ccc(N)cc2)n1 [Sulfamerazine] | 236 °C
29 | Cc1cc(C)nc(NS(=O)(=O)c2ccc(N)cc2)n1 [Sulfamethazine] [listing 1 of 2 here] | 196 °C
30 | Cc1cc(C)nc(NS(=O)(=O)c2ccc(N)cc2)n1 [Sulfamethazine] [listing 2 of 2 here] | 198 °C
31 | O=C(O)c1cc(/N=N/c2ccc(S(=O)(=O)Nc3ccccn3)cc2)ccc1O [Sulfasalazine] | 220 °C
32 | Cc1noc(NS(=O)(=O)c2ccc(N)cc2)c1C [Sulfisoxazole] | 194 °C
33 | O=S(=O)(O)Cl [Sulfurochloridic acid] | -80 °C
34 | O=S(=O)(O)F [Sulfurofluoridic acid] | -87.3 °C
35 | CC[C@@H]1OC(=O)[C@H](C)C(=O)[C@H](C)[C@@H](O[C@@H]2O[C@H](C)C[C@H](N(C)C)[C@H]2O)[C@](C)(OC)C[C@@H](C)C(=O)[C@H](C)[C@H]2N(CCCCn3cnc(-c4cccnc4)c3)C(=O)O[C@@]12C [Telithromycin] | 182 °C
36 | CC(C)(C)NCC(O)c1cc(O)cc(O)c1 (stereo not drawn) [Terbutaline] | 120 °C
37 | N#Cc1ccc(C#N)cc1 [Terephthalonitrile] | 226 °C
38 | C[C@]12CC[C@H]3[C@@H](CCC4=CC(=O)CC[C@@]43C)[C@@H]1CC[C@@H]2O [Testosterone] [listing 1 of 2 here] | 154 °C
39 | C[C@]12CC[C@H]3[C@@H](CCC4=CC(=O)CC[C@@]43C)[C@@H]1CC[C@@H]2O [Testosterone] [listing 2 of 2 here] | 155 °C
40 | CCCCCCCCCCCCCCc1ccccc1 [Tetradecylbenzene] | 9 °C
41 | O=C1CCC(N2C(=O)c3ccccc3C2=O)C(=O)N1 (stereo not drawn) [Thalidomide] | 275 °C
42 | Cn1c(=O)c2nc[nH]c2n(C)c1=O [Theophylline] | 274 °C
43 | O=S(F)F [Thionyl difluoride] | -110 °C
44 | c1ccsc1 [Thiophene] | -38 °C
45 | NC(N)=S [Thiourea] | 176 °C
46 | Cc1cn([C@H]2C[C@H](O)[C@@H](CO)O2)c(=O)[nH]c1=O [Thymidine] | 188 °C
47 | CCS(=O)(=O)CCn1c([N+](=O)[O-])cnc1C [Tinidazole] | 128 °C
48 | CN(C)CCOc1ccc(/C(=C(/CCCl)c2ccccc2)c2ccccc2)cc1 [Toremifene] | 109 °C
49 | CC(C=CC=C(C)/C=C/C1=C(C)CCCC1(C)C)=CC(=O)O [Tretinoin] | 181 °C
50 | Nc1nc(N)c2nc(-c3ccccc3)c(N)nc2n1 [Triamterene] | 306 °C
51 | Cc1nnc2n1-c1ccc(Cl)cc1C(c1ccccc1Cl)=NC2 [Triazolam] [listing 1 of 2 here] | 234 °C
52 | Cc1nnc2n1-c1ccc(Cl)cc1C(c1ccccc1Cl)=NC2 [Triazolam] [listing 2 of 2 here] | 234 °C

Row | Structure (SMILES) | melting point
53 | [2H]C(Cl)(Cl)Cl [Trichloro(~2~H)methane] | -64 °C
54 | O=C(O)C(Cl)(Cl)Cl [Trichloroacetic acid] | 57 °C
55 | CCCCCCCCCCCC(C)=O [Tridecan-2-one] | 24 °C
56 | CCCCCCCCCCCCC [Tridecane] | -5 °C
57 | O=C(O)C(F)(F)F [Trifluoroacetic acid] | -15 °C
58 | O=C(OC(=O)C(F)(F)F)C(F)(F)F [Trifluoroacetic anhydride] | -63 °C
59 | COB(OC)OC [Trimethyl borate] | -34 °C
60 | c1ccc2c(c1)c1ccccc1c1ccccc21 [Triphenylene] | 199 °C
61 | CCCCCCCCCCCCCCCCCCCCCCCCCCCCCCCCC [Tritriacontane] | 72 °C
62 | CC(C)(C)NC(=O)C(c1ccccc1)N(Cc1ccco1)C(=O)CNC(=O)OC(C)(C)C (stereo not drawn) [Ugi product 206B(UC)] | 203 °C
63 | CCCCCCCCCCC [Undecane] | -26 °C
64 | CCCCC=O [Valeraldehyde] | -91.5 °C
65 | CCCCC(=O)OCC(=O)[C@]1(O)Cc2c(O)c3c(c(O)c2[C@@H](OC2CC(NC(=O)C(F)(F)F)C(O)C(C)O2)C1)C(=O)c1c(OC)cccc1C3=O (stereo partly drawn) [Valrubicin] | 116 °C
66 | COc1cc(C(=O)NS(=O)(=O)c2ccccc2C)ccc1Cc1cn(C)c2ccc(NC(=O)OC3CCCC3)cc12 [Zafirlukast] | 139 °C
67 | Cc1cc(CC(=O)O)n(C)c1C(=O)c1ccc(Cl)cc1 [Zomepirac] | 178 °C
68 | CSC(SC)=C(C#N)C#N [[Bis(Methylthio)Methylene]Malononitrile] | 61 °C
69 | CC1=CCC2CC1C2(C)C (stereo not drawn) [a-pinene] | -62 °C
70 | O=C(O)COC(=O)Cc1ccccc1Nc1c(Cl)cccc1Cl [aceclofenac] | 149 °C
71 | CC(=O)NC(CCC(N)=O)C(=O)O (stereo not drawn) [aceglutamide] | 197 °C
72 | COc1ccc2c(c1)c(CC(=O)OCC(=O)O)c(C)n2C(=O)c1ccc(Cl)cc1 [acemetacin] | 150 °C
73 | CC(=O)Nc1ccc(O)cc1 [acetaminophen] | 170 °C
74 | CC(=O)Nc1ccccc1 [acetanilide] | 114 °C
75 | CC(=O)O [acetic acid] | 17 °C
76 | CC(=O)O [acetic_acid] | 17 °C
77 | CC(=O)Cl [acetyl_chloride] | -112 °C
78 | COC(CC(C)=O)OC [acetylacetaldehyde dimethyl acetal] | -83 °C

Row | Structure (SMILES) | melting point
79 | c1ccc2nc3ccccc3cc2c1 [acridine] | 109 °C
80 | Nc1nc2c(ncn2COCCO)c(=O)[nH]1 [acyclovir] | 265 °C
81 | O=C2/N=C(\Nc1n(cnc12)COCCO)N [acyclovir] | 257 °C
82 | NC(=O)C12CC3CC(CC(C3)C1)C2 [adamantane-1-carboxamide] | 187 °C
83 | O=C(O)CCCCC(=O)O [adipic acid] | 153 °C
84 | CC(N)C(=O)O (stereo not drawn) [alanine] | 292 °C
85 | CCCSc1ccc2[nH]c(NC(=O)OC)nc2c1 [albendazole] | 209 °C
86 | C=CCN1C(=O)C(CC(C)C)NC1=S (stereo not drawn) [albutoin] | 210 °C
87 | C=CCO [allyl alcohol] | -129 °C
88 | C=CCBr [allyl bromide] | -119 °C
89 | C=CCCl [allyl chloride] | -135 °C
90 | C=CCI [allyl iodide] | -99 °C
91 | C=CCN=C=S [allyl isothiocyanate] | -80 °C
92 | BrC(Br)c1ccccc1C(Br)Br [alpha,alpha,alpha',alpha'-tetrabromo-o-xylene] | 116 °C
93 | O=C(O)C(Sc1ccccc1)c1ccccc1 (stereo not drawn) [alpha-(phenylthio)phenylacetic acid] | 100 °C
94 | O=C[C@@H](O)[C@@H](O)[C@@H](O)[C@H](O)CO [alpha-D-talose] | 134 °C
95 | O=c1cc(-c2ccccc2)oc2c1ccc1ccccc12 [alpha-naphthoflavone] | 158 °C
96 | O=C(O)/C(=C/c1ccccc1)c1ccccc1 [alpha-phenylcinnamic acid] | 173 °C
97 | NS(=O)(=O)Cc1ccccc1 [alpha-toluenesulfonamide] | 103 °C
98 | C=CCc1ccccc1OCC(O)CNC(C)C (stereo not drawn) [alprenolol] | 109 °C
99 | Nc1ccc2ccc3cccc4ccc1c2c34 [aminopyrene] | 116 °C
100 | CCC1(CCC(C)C)C(=O)NC(=O)NC1=O [amobarbital] | 157 °C
101 | Nc1ccc(OCCCCCN2C(=O)c3ccccc3C2=O)cc1 [amphotalide] | 113 °C
102 | CC(=O)OC1CCC2C3CCC4CC=CCC4(C)C3CCC12C (stereo not drawn) [androst-2-en-17-yl acetate] | 94 °C
103 | CC12CCC3C(C(=O)CC4CC(=O)CCC43C)C1CCC2=O (stereo not drawn) [androstane-3,7,17-trione] | 232 °C
